Data as given in patent EP0147498A2, “Method of testing chemical and biological substances” (Thorn, Werner Prof. Dr., priority 1983, dated 1985).

Columns and labels:
Magenschleimhaut = experiment: Plasma polyp (PP) formation at the gastric mucosa after application by stomach tube, PP isolated by reverse centrifugation and counted by phase-contrast microscopy; details: for Anzahl der PP pro 1 g Rattenmagen: stomach tube, about 20-30 min
Description: Die PP-Bildung, deren Konzentration und Auszählung wurden an Gruppen zu je 5 Ratten von 140 bis 160 g Körpergewicht, im Mittel 150 g, kontrolliert und die Anzahl der PP auf 1 g Magen (Leergewicht) umgerechnet. Die Tiere waren vor dem Versuch 15 bis 17 Stunden nahrungsfrei. Die Applikation der Testsubstanzen, die gelöst sind in Krebs-Ringer-Lösung (KRL) oder Aq.bidest, erfolgte per Schlundsonde. Die verabreichte Lösung besitzt einen pH-Wert von 7,0 bis 7,2. Die Verweildauer des applizierten Volumens hängt zum Teil ab von den Eigenschaften der Testsubstanz. […] Die Verweildauer der Testsubstanz bis zur Entnahme der Mägen einer Gruppe betrug etwa 20 bis maximal 30 min. Dabei werden dosisabhängig die abgeschnürten PP erfaßt.
Es wurden 5 Tierversuche - zu einer Serie zusammengefaßt - durchgeführt innerhalb von 40 min, wobei die Mägen wie folgt aufgearbeitet wurden: • 1. Jeder Ratte werden in nicht narkotisiertem Zustand 4,5 ml der Lösung bestehend aus der in KRL oder Aq.bidest gelösten Testsubstanz mittels einer Schlundsonde appliziert. • 2. Nach einer Einwirkzeit von etwa 15 bis 20 min werden 40 bis 45 mg Nembutal intraperitoneal appliziert, 2 bis 3 min zugewartet und dann der Magen während eines Zeitraums von etwa 5 min entnommen. • 3. Der Magen wird aufgeschnitten, der Inhalt aufgefangen, auf PP geprüft und der leere Magen in. oxygenierte KRL-Lösung mit Glucosezusatz geworfen. • 4. Alle 5 Mägen werden in der glucosehaltigen KRL dreimal hochtourig homogenisiert, das Homogenisat über ein feinmaschiges Sieb gegossen, und das Sieb wird mit 20 ml KRL nachgespült, so daß ein Endvolumen von 80 ml vorliegt. • 5. Die Volumina aus den Stufen 3 und 4 werden mit 8 ml eine: 7 %iger Lösung aus einem Copolymeren der Saccharose mit Epichlorhydrin unterschichtet und bei 2000 Umdrehungen/min im Schwingbecherrotor für 20 min zentrifugiert. • 6. Die die PP enthaltende Schicht wird erneut 60 min im Festwinkelrotor bei 13000 Umdrehungen/min (Ultrazentrifuge) zentrifugiert, der Uberstand wird verworfen und das Sediment weiterverarbeitet. • 7 Das Sediment wird einer umgekehrten Zentrifugation in der Ultrazentrifuge bei 25000 U/min für 45 min unterzogen. • 8. Die in einer Bohrung aufgefangenen PP aus der umgekehrten Zentrifugation werden in 50 µl KRL aufgenommen. • 9. Zur Auszählung der PP aus Stufe 8 bei einem Ansatz von jeweils 3 µl dient ein Phasenkontrastmikroskop. Es werden 10 Felder mit dem Rasterobjektiv ausgezählt, zum Teil unter fotografischer Kontrolle. Die in der nachfolgenden Tabelle aufgeführten Werte stammen jeweils aus drei Ansätzen; einer Probe von 5 Rattenmägen oder aus der Auswertung von 30 Feldern. • 10. Mittelwert pro Feld x Umrechnungsfaktor pro Feld x 16,6 ergibt die Zahl der PP pro Gramm Magen. Der Umrechnungsfaktor für die Feldfläche von 18 x 18 mm^2 ist 24,652.
Es wurden die in der folgenden Tabelle angegebenen Substanzen injiziert und dann die Anzahl der PP aus einer Serie von 5 Tieren als Mittelwert pro Gramm Rattenmagen oder gemittelt aus mehreren Serien mit jeweils 5 Tieren ermittelt.

[1] = system: Syncytiotrophoblasten der Placenta; details: cited from earlier work; for PP-Bildung in Meerschweinchenplacenten: animal experiments, Archiv für Gynäkologie 216 (1974) and 221 (1976); for Auftreten von Plasmapolypen am Syncytiotrophoblasten der Placenta: poisoning of pregnant guinea pigs, within a few minutes, already known

SMILES: CC(=O)C(=O)O [Na-Pyruvat, Natriumpyruvat]
- Anzahl der PP pro 1 g Rattenmagen (Magenschleimhaut; 0,5 mmol Na-Pyruvat in 4,5 ml Aq.bidest, 1 series of 5 rats): etwa 220.000 PP pro 1 g Rattenmagen
- PP-Zahlen gegenüber der Blindprobe (4,5 ml Aq.bidest) (Magenschleimhaut; Na-Pyruvat alone, compared with the blank): keine Erhöhung

SMILES: O=C(O)O [NaHCO3]
- Anzahl der PP pro 1 g Rattenmagen (Magenschleimhaut; 1,33 mmol NaHCO3 in 4,5 ml Aq.bidest, mean of 4 series of 5 rats): 333.700 PP pro 1 g Rattenmagen

SMILES: [F-].[Na+] [Natriumfluorid]
- PP-Bildung in Meerschweinchenplacenten [1]: verstärkte, reproduzierbare Bildung und Abschnürung von Zellprotrusionen
- Auftreten von Plasmapolypen am Syncytiotrophoblasten der Placenta [1]: in großer Zahl

SMILES: CC(O)C(=O)O (centres unmarked) [Na-Lactat]
- Anzahl der PP pro 1 g Rattenmagen (Magenschleimhaut; 2,0 mmol Na-Lactat in 4,5 ml Aq.bidest, mean of 4 series of 5 rats): 344.000 PP pro 1 g Rattenmagen

SMILES: O=[N+]([O-])c1ccc(O)c([N+](=O)[O-])c1 [2.4-Dinitrophenol]
- PP-Bildung in Meerschweinchenplacenten [1]: keiner vermehrten PP-Bildung

SMILES: O=C(O)CI [Monojodacetat]
- PP-Bildung in Meerschweinchenplacenten [1]: verstärkte, reproduzierbare Bildung und Abschnürung von Zellprotrusionen
- Auftreten von Plasmapolypen am Syncytiotrophoblasten der Placenta [1]: in großer Zahl

SMILES: CC(=O)Oc1ccccc1C(=O)O [ASS, Acetylsalicylsäure]
- Anzahl der PP pro 1 g Rattenmagen (Magenschleimhaut; 0,5 mmol ASS in 4,5 ml Aq.bidest, mean of 3 series of 5 rats): 728.000 PP pro 1 g Rattenmagen
- Anzahl der PP pro 1 g Rattenmagen (Magenschleimhaut; 0,25 mmol ASS in 4,5 ml Aq.bidest, mean of 3 series of 5 rats): 610.700 PP pro 1 g Rattenmagen
